Assay results published in ChEMBL document CHEMBL4270672, “Synthesis and Biological Evaluation of Fused Tricyclic Heterocycle Piperazine (Piperidine) Derivatives As Potential Multireceptor Atypical Antipsychotics” (J Med Chem, 2018).

Legend:
[1] = target: 5-hydroxytryptamine receptor 2A (Rattus norvegicus, UniProt P14842); assay: Displacement of [3H]-ketanserine from serotonin 5-HT2A receptor in rat brain cortex homogenates incubated for 30 mins by liquid scintillation counting
D(2) dopamine receptor = D(2) dopamine receptor (Rattus norvegicus, UniProt P61169)
[2] = target: T1, 5-hydroxytryptamine receptor 1A (Rattus norvegicus, UniProt P19327)
T1 sequence (P19327 whole entry): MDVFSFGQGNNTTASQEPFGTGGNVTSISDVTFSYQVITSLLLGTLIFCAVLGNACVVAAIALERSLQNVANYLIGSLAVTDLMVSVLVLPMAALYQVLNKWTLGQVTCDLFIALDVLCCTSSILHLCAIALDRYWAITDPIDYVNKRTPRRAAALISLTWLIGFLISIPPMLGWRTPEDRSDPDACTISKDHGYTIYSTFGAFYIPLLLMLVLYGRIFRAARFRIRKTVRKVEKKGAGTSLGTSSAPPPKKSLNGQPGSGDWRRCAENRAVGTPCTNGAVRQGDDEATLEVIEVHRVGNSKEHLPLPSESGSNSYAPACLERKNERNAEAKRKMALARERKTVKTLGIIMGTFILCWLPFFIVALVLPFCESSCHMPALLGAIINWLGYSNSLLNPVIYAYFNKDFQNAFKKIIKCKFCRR

Sequence of D(2) dopamine receptor (P61169 whole entry): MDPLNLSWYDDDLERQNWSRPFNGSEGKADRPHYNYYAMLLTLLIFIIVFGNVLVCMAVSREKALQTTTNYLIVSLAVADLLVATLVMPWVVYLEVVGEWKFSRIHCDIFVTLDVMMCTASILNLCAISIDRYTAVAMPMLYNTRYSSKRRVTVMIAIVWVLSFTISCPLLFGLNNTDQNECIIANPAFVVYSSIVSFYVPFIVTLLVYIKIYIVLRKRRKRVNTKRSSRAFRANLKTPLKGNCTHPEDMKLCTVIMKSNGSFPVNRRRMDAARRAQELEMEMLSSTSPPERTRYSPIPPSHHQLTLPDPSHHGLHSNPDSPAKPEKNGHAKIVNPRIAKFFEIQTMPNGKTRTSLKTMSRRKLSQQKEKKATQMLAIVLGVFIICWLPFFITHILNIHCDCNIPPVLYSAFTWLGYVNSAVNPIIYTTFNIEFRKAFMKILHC
Sequence of 5-hydroxytryptamine receptor 2A (P14842 whole entry): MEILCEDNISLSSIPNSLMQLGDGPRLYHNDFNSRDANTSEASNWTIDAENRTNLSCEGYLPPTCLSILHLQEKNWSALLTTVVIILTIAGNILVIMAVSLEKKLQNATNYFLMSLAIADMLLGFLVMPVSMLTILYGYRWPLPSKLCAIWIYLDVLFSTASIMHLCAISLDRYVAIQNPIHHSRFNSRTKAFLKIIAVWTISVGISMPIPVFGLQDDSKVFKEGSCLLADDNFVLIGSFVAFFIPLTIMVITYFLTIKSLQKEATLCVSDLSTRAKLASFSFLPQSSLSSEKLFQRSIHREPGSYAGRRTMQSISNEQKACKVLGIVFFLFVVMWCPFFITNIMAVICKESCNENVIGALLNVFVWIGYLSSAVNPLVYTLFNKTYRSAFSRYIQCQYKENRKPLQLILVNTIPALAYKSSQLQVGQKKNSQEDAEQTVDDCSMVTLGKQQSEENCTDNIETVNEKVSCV

| SMILES | Ki [1] [nM] | Ki (D(2) dopamine receptor) [nM] | Ki [2] [nM] |
| --- | --- | --- | --- |
| O=C1CCc2cc(CCCCN3CCN(c4nsc5ccccc45)CC3)cc3c2N1CCC3 | 83.9 | 154 | 98 |
| O=C(CCN1CCN(c2ccc(Cl)cc2)CC1)c1cc2c3c(c1)CCC(=O)N3CCC2 | 720 | > 2000 | 1630 |
| O=C(CCN1CCN(c2ccccn2)CC1)c1cc2c3c(c1)CCC(=O)N3CCC2 | 675 | 1660 | 1660 |
| O=C1CCc2cc(CCCN3CCN(c4cccc(Cl)c4Cl)CC3)cc3c2N1CCC3 | 186 | 582 | 196 |
| COc1ccccc1N1CCN(CCC(=O)c2cc3c4c(c2)CCC(=O)N4CCC3)CC1 | 178 | > 2000 | 965 |
| O=C(CN1CCC(c2noc3cc(F)ccc23)CC1)c1cc2c3c(c1)CCC(=O)N3CCC2 | 765 | 900 | > 2000 |
| Cc1cccc(N2CCN(CCC(=O)c3cc4c5c(c3)CCN5C(=O)CC4)CC2)c1C | 175 | 189 | 84.6 |
| N#Cc1ccc(N2CCN(CCC(=O)c3cc4c5c(c3)CCN5C(=O)CC4)CC2)c(F)c1 | 388 | 574 | 474 |
| Cc1cccc(N2CCN(CCC(=O)c3cc4c5c(c3)CCC(=O)N5CCC4)CC2)c1C | 207 | 1850 | 196 |
| O=C(CCN1CCN(c2cccc(Cl)c2Cl)CC1)c1cc2c3c(c1)CCC(=O)N3CCC2 | 207 | 1220 | 269 |
| O=C(CCN1CCN(c2ccccc2)CC1)c1cc2c3c(c1)CCC(=O)N3CCC2 | 752 | 1760 | 1860 |

The remaining molecules from weak to strong by Ki [1], led by results:

| Ki [1] [nM] | Ki (D(2) dopamine receptor) [nM] | Ki [2] [nM] | SMILES |
| --- | --- | --- | --- |
| 83.4 | 85.8 | 82.9 | CC1CC(=O)N2CCCc3cc(CCCCN4CCC(c5noc6cc(F)ccc56)CC4)cc1c32 (stereo not drawn) |
| 73.9 | 44.2 | 58.6 | O=C1CCc2cc(CCCN3CCC(c4noc5cc(F)ccc45)CC3)cc3c2N1CCC3 |
| 72 | 182 | 129 | O=C(CCN1CCN(c2nsc3ccccc23)CC1)c1cc2c3c(c1)CCC(=O)N3CCC2 |
| 68.4 | 88.8 | 54.6 | O=C(CCN1CCN(c2nsc3ccccc23)CC1)c1cc2c3c(c1)CCN3C(=O)CC2 |
| 59.3 | 74.3 | 69.1 | O=C1CCc2cc(CCCCN3CCC(c4noc5cc(F)ccc45)CC3)cc3c2N1CCC3 |
| 58.3 | 43.2 | 54 | O=C1CCc2cc(CCCCCN3CCC(c4noc5cc(F)ccc45)CC3)cc3c2N1CC3 |
| 52.3 | 58.2 | 62.9 | O=C(CCN1CCC(c2noc3cc(F)ccc23)CC1)c1cc2c3c(c1)CCC(=O)N3CCC2 |
| 50.3 | 49.9 | 31.8 | O=C(CCCN1CCN(c2nsc3ccccc23)CC1)c1cc2c3c(c1)CCN3C(=O)CC2 |
| 32.2 | 62.1 | 42.3 | CC1CC(=O)N2CCCc3cc(C(=O)CCCN4CCC(c5noc6cc(F)ccc56)CC4)cc1c32 (stereo not drawn) |
| 29.3 | 46.5 | 38.7 | O=C1CCc2cc(CCCN3CCC(c4noc5cc(F)ccc45)CC3)cc3c2N1CC3 |
| 24.2 | 29.7 | 79.1 | O=C1CCc2cc(C(O)CCCN3CCC(c4noc5cc(F)ccc45)CC3)cc3c2N1CCC3 (stereo not drawn) |
| 22.3 | 18.2 | 32.9 | O=C(CCCN1CCC(c2noc3cc(F)ccc23)CC1)c1cc2c3c(c1)CCC(=O)N3CCC2 |
| 21.9 | 18.3 | 19.1 | O=C(CCCN1CCC(c2noc3cc(F)ccc23)CC1)c1cc2c3c(c1F)CCN3C(=O)CC2 |
| 19.9 | 28.4 | 19.6 | O=C1CCc2cc(C(O)CCN3CCC(c4noc5cc(F)ccc45)CC3)cc3c2N1CCC3 (stereo not drawn) |
| 19.1 | 31.8 | 32.6 | O=C(CCCCN1CCC(c2noc3cc(F)ccc23)CC1)c1cc2c3c(c1)CCC(=O)N3CCC2 |
